Results taken from patent US20240308968A1, “FUNGICIDAL SUBSTITUTED HETEROCYCLES” (FMC Corporation, priority 2021, published 2024).

Experiments:
Assay type in all cases: in vivo
Details in all cases: 100 = 100% disease control, 0 = no control
Zymoseptoria tritici = assay: Test A: preventive spray on wheat seedlings, wheat leaf blotch disease rating
Description: (§1) General protocol for preparing test suspensions for Tests A-F: the test compounds were first dissolved in acetone in an amount equal to 3% of the final volume and then suspended at the desired concentration (in ppm) in acetone and purified water (50/50 mix by volume) containing 50 to 250 ppm of the surfactant PEG400 (polyhydric alcohol esters). The resulting test suspensions were then used in Tests A-F.
The test solution was sprayed to the point of run-off on wheat seedlings. The following day the seedlings were inoculated with a spore suspension of Zymoseptoria tritici (the causal agent of wheat leaf blotch) and incubated in a saturated atmosphere at 24° C. for 48 h, and then moved to a growth chamber at 20° C. for 17 days, after which time disease ratings were made. […]

Phakopsora pachyrhizi = assay: Test D: preventive spray on soybean seedlings, Asian soybean rust disease rating
Description: as §1
The test solution was sprayed to the point of run-off on soybean seedlings. The following day the seedlings were inoculated with a spore suspension of Phakopsora pachyrhizi (the causal agent of Asian soybean rust) and incubated in a saturated atmosphere at 22° C. for 24 h and then moved to a growth chamber at 22° C. for 8 days, after which time visual disease ratings were made.
(§2) The test suspension was sprayed to the point of run-off on tomato seedlings. The following day the seedlings were inoculated with a spore suspension of Alternaria solani (the causal agent of tomato early blight) and incubated in a saturated atmosphere at 27° C. for 48 h, and then moved to a growth chamber at 20° C. for 3 days, after which time visual disease ratings were made. A rating of 100 indicates 100% disease control and a rating of 0 indicates no disease control (relative to the controls). A dash (-) indicates the compound was not tested.

Botrytis cinerea = assay: Test E: preventive spray on tomato seedlings, tomato Botrytis disease rating
Description: as §1
The test suspension was sprayed to the point of run-off on tomato seedlings. The following day the seedlings were inoculated with a spore suspension of Botrytis cinerea (the causal agent of tomato Botrytis) and incubated in a saturated atmosphere at 20° C. for 48 h, and then moved to a growth chamber at 24° C. for 3 days, after which time visual disease ratings were made.
as §2

[1] = test system: Blumeria graminis f. sp. Tritici; assay: Test C: preventive spray on wheat seedlings, wheat powdery mildew disease rating
Description: as §1
The test suspension was sprayed to the point of run-off on wheat seedlings. The following day the seedlings were inoculated with a spore dust of Blumeria graminis f. sp. Tritici, (also known as Erysiphe graminis f. sp. Tritici, the causal agent of wheat powdery mildew) and incubated in a growth chamber at 20° C. for 8 days, after which time visual disease ratings were made.
as §2

Alternaria solani = assay: Test F: preventive spray on tomato seedlings, tomato early blight disease rating
Description: as §1, §2

[2] = test system: Puccinia recondita f. sp. Tritici; assay: Test B: preventive spray on wheat seedlings, wheat leaf rust disease rating
Description: as §1
The test solution was sprayed to the point of run-off on wheat seedlings. The following day the seedlings were inoculated with a spore suspension of Puccinia recondita f. sp. Tritici (the causal agent of wheat leaf rust) and incubated in a saturated atmosphere at 20° C. for 24 h, and then moved to a growth chamber at 20° C. for 7 days, after which time disease ratings were made.
as §2

[3] = Zymoseptoria tritici, 456 h, 50 ppm
[4] = Phakopsora pachyrhizi, 216 h, 50 ppm
[5] = Botrytis cinerea, 120 h, 50 ppm
[6] = Blumeria graminis, 192 h, 50 ppm
[7] = Alternaria solani, 120 h, 50 ppm
[8] = Puccinia recondita, 192 h, 50 ppm

| SMILES | Test A disease control rating (Zymoseptoria tritici; 50 ppm) | Test D disease control rating (Phakopsora pachyrhizi; 50 ppm) | Test E disease control rating (Botrytis cinerea; 50 ppm) | Test C disease control rating ([1]; 50 ppm) | Test F disease control rating (Alternaria solani; 50 ppm) | Test B disease control rating ([2]; 50 ppm) | other results |
| --- | --- | --- | --- | --- | --- | --- | --- |
| COc1cc(OC)cc(-c2nc(C)nc(C)c2-c2c(F)cc(F)cc2F)c1 [Compound 53, 4-(3,5-dimethoxyphenyl)-2,6-dimethyl-5-(2,4,6-trifluorophenyl)pyrimidine] |  |  |  |  |  |  | pest or weed control at 50 ppm (Zymoseptoria tritici; [3]): 100%; pest or weed control at 50 ppm (Phakopsora pachyrhizi; [4]): 97%; pest or weed control at 50 ppm (Botrytis cinerea; [5]): 96%; pest or weed control at 50 ppm [1, 6]: 100%; pest or weed control at 50 ppm (Alternaria solani; [7]): 97%; pest or weed control at 50 ppm [2, 8]: 100% |
| Cc1c(-c2ccc(F)cc2Cl)c(-c2ccc(Br)s2)nn(C)c1=O [Compound 17] | 99% | 12% | 39% | 56% | 0% | 68% |  |
| COc1cc(OC)cc(-n2nc(CF)c(=O)c(C)c2-c2ccc(F)cc2F)c1 [Compound 26] | 100% | 99% | 98% | 98% | 99% | 100% |  |
| COc1cc(OC)c(Cl)c(-n2c(-c3ccc(F)cc3Cl)c(Cl)c(=O)n(C)c2=O)c1 [Compound 35, 5-chloro-1-(2-chloro-3,5-dimethoxyphenyl)-6-(2-chloro-4-fluorophenyl)-3-methyl-2,4(1H,3H)-pyrimidinedione] |  |  |  |  |  |  | pest or weed control at 50 ppm (Zymoseptoria tritici; [3]): 100%; pest or weed control at 50 ppm (Phakopsora pachyrhizi; [4]): 91%; pest or weed control at 50 ppm (Botrytis cinerea; [5]): 94%; pest or weed control at 50 ppm [1, 6]: 98%; pest or weed control at 50 ppm (Alternaria solani; [7]): 0%; pest or weed control at 50 ppm [2, 8]: 100% |
| COc1ccc(Cl)c(-n2nc(NC(C)=O)c(=O)cc2-c2ccc(F)cc2Cl)c1 [Compound 135] | 41% | 0% | 94% | 0% | 0% | 89% |  |
| CCOC(=O)c1nn(-c2cc(OC)ccc2Cl)c(-c2ccc(F)cc2F)c(C(=O)OCC)c1=O [Compound 81] | 0% | 0% | 0% | 0% | 0% | 19% |  |
| COc1cc(OC)cc(-n2nc(CF)c(=O)c(C)c2-c2ccc(F)cc2Cl)c1 [Compound 90] | 99% | 100% | 99% | 97% | 99% | 100% |  |
| COc1cc(OC)c(Cl)c(-n2nc(CF)c(=O)c(C)c2-c2ccc(F)cc2Cl)c1 [Compound 85] | 100% | 100% | 93% | 99% | 100% | 100% |  |
| Cn1nc(-c2cccnc2)c(-c2c(F)cccc2F)cc1=O [Compound 2] | 0% | 0% | 0% | 0% | 0% | 0% |  |
| Cc1c(-c2ccc(F)cc2Cl)c(-c2nn(C)cc2Cl)nn(C)c1=O [Compound 22] | 94% | 53% | 94% | 98% | 0% | 93% |  |
| COc1cc(OC)cc(-n2c(-c3ccc(F)cc3Cl)c(C)c(=O)n(C)c2=O)c1 [Compound 39, 6-(2-chloro-4-fluorophenyl)-1-(3,5-dimethoxyphenyl)-3,5-dimethyl-2,4(1H,3H)-pyrimidinedione] |  |  |  |  |  |  | pest or weed control at 50 ppm (Zymoseptoria tritici; [3]): 0%; pest or weed control at 50 ppm (Phakopsora pachyrhizi; [4]): 73%; pest or weed control at 50 ppm (Botrytis cinerea; [5]): 90%; pest or weed control at 50 ppm [1, 6]: 98%; pest or weed control at 50 ppm (Alternaria solani; [7]): 9%; pest or weed control at 50 ppm [2, 8]: 100% |
| COc1cc(OC)c(Cl)c(-n2c(-c3ccc(F)cc3Cl)cc(=O)n(C)c2=O)c1 [Compound 36, 1-(2-chloro-3,5-dimethoxyphenyl)-6-(2-chloro-4-fluorophenyl)-3-methyl-2,4(1H,3H)-pyrimidinedione] |  |  |  |  |  |  | pest or weed control at 50 ppm (Zymoseptoria tritici; [3]): 95%; pest or weed control at 50 ppm (Phakopsora pachyrhizi; [4]): 89%; pest or weed control at 50 ppm (Botrytis cinerea; [5]): 88%; pest or weed control at 50 ppm [1, 6]: 92%; pest or weed control at 50 ppm (Alternaria solani; [7]): 0%; pest or weed control at 50 ppm [2, 8]: 100% |
| Cc1c(-c2ccc(F)cc2Cl)c(-c2cccs2)nn(C)c1=O [Compound 9] | 100% | 8% | 98% | 95% | 16% | 79% |  |
| COc1cc(OC)c(Cl)c(-c2nc(C)nc(C)c2-c2c(F)cccc2F)c1 [Compound 55] | 100% | 100% | 99% | 100% | 99% | 100% |  |
| COc1cc(OC)c(Cl)c(-n2nc(CO)c(=O)c(Cl)c2-c2ccc(F)cc2Cl)c1 [Compound 99] |  |  |  |  |  |  | Test A disease control rating (Zymoseptoria tritici; 250 ppm): 100%; Test D disease control rating (Phakopsora pachyrhizi; 250 ppm): 99%; Test E disease control rating (Botrytis cinerea; 250 ppm): 93%; Test C disease control rating ([1]; 250 ppm): 95%; Test F disease control rating (Alternaria solani; 250 ppm): 96%; Test B disease control rating ([2]; 250 ppm): 100% |
| COc1cc(OC)cc(-n2c(-c3ccc(F)cc3Cl)cc(=O)n(C)c2=O)c1 [Compound 34, 6-(2-chloro-4-fluorophenyl)-1-(3,5-dimethoxyphenyl)-3-methyl-2,4(1H,3H)-pyrimidinedione] |  |  |  |  |  |  | pest or weed control at 250 ppm (Zymoseptoria tritici; Zymoseptoria tritici, 456 h, 250 ppm): 25%; pest or weed control at 250 ppm (Phakopsora pachyrhizi; Phakopsora pachyrhizi, 216 h, 250 ppm): 64%; pest or weed control at 250 ppm (Botrytis cinerea; Botrytis cinerea, 120 h, 250 ppm): 63%; pest or weed control at 250 ppm ([1]; Blumeria graminis, 192 h, 250 ppm): 0%; pest or weed control at 250 ppm (Alternaria solani; Alternaria solani, 120 h, 250 ppm): 0%; pest or weed control at 250 ppm ([2]; Puccinia recondita, 192 h, 250 ppm): 86% |
| COc1ccc(Cl)c(-n2nc(Cl)c(=O)c(Br)c2-c2ccc(F)cc2Cl)c1 [Compound 134] | 100% | 100% | 99% | 86% | 99% | 100% |  |
| COc1cc(OC)cc(-c2nc(C)ncc2-c2c(F)cc(F)cc2F)c1 [Compound 41] |  |  |  |  |  |  | Test A disease control rating (Zymoseptoria tritici; 250 ppm): 84%; Test D disease control rating (Phakopsora pachyrhizi; 250 ppm): 0%; Test E disease control rating (Botrytis cinerea; 250 ppm): 17%; Test C disease control rating ([1]; 250 ppm): 91%; Test F disease control rating (Alternaria solani; 250 ppm): 0%; Test B disease control rating ([2]; 250 ppm): 0% |
| Cc1ccncc1-c1nn(C)c(=O)c(Cl)c1-c1ccc(F)cc1Cl [Compound 4, 4-chloro-5-(2-chloro-4-fluorophenyl)-2-methyl-6-(4-methyl-3-pyridinyl)-3(2H)-pyridazinone] |  |  |  |  |  |  | pest or weed control at 50 ppm (Zymoseptoria tritici; [3]): 100%; pest or weed control at 50 ppm (Phakopsora pachyrhizi; [4]): 38%; pest or weed control at 50 ppm (Botrytis cinerea; [5]): 65%; pest or weed control at 50 ppm [1, 6]: 89%; pest or weed control at 50 ppm (Alternaria solani; [7]): 70%; pest or weed control at 50 ppm [2, 8]: 89% |
| Cn1nc(-c2ccsc2)c(-c2c(F)cccc2F)cc1=O [Compound 1] |  |  |  |  |  |  | Test A disease control rating (Zymoseptoria tritici; 250 ppm): 0%; Test D disease control rating (Phakopsora pachyrhizi; 250 ppm): 65%; Test E disease control rating (Botrytis cinerea; 250 ppm): 0%; Test C disease control rating ([1]; 250 ppm): 0%; Test F disease control rating (Alternaria solani; 250 ppm): 0%; Test B disease control rating ([2]; 250 ppm): 0% |
